Test results: paper PMC3397408, “Natural and synthetic cathelicidin peptides with anti-microbial and anti-biofilm activity against Staphylococcus aureus” (BMC Microbiology, 2011)
Like-named read-outs stand apart in the source and are kept apart here. Where no end group is shown, it is not given here.

Experiments:
[1] = tested on: S. aureus biofilm formation; settings: peptide 10 μg/ml, TSB, 24 h, 37°C, polystyrene 96-well plate, crystal violet 570 nm, n = 6, relative to 0 peptide control
Protocol: (§1) C. […] Growth (absorbance at 600 nm) is indicated by gray bars with "0 peptide" control set to 100%. Biofilm detection on a polystyrene 96-well plate at 37°C after 24 h of growth in TSB was detected as the absorbance of crystal violet stain (570 nm). Percent biofilm production is indicated by black bars (n = 6), relative to "0 peptide" control. Each experiment is a representative of at least two independent trials. Error bars indicate the standard deviation from the mean. The asterisk (*) indicates statistically different than the positive control (p < 0.01).
(§2) Biofilm production was measured as previously described with the following modifications. […] The positive control is S. aureus in TSB with no peptide. Six wells were used for each peptide concentration (n = 6). After 24 h, the optical densities (OD) of the wells were taken at 600nm to quantify […]. The biofilm production was measured using the crystal violet stain technique.
All experiments were repeated at least twice, with a representative experiment shown.

erythrocytes = settings: examined up to 200 μg/ml; cited from earlier work
Protocol: The hemolytic activity of each of the peptides was determined using 2% horse erythrocytes as previously described.

[2] = tested on: S. aureus attachment to 96-well plate; test: Biofilm attachment assay; assay type: cell-based, Staphylococcus aureus; settings: peptide 1 μg/ml, 1 h, 37°C, TSB culture OD600 ~1.0, n = 16, Student's t test
Protocol: The attachment of Staphylococcus spp. to solid surfaces is largely seen as an essential step in the formation of biofilm. Since most of the peptides tested in our biofilm assays were capable of inhibiting biofilm formation (except for scrambled LL-37), we investigated a possible mechanism for this action. We incubated scrambled LL-37 (negative control), LL-37, D-LL-37, NA-CATH, and NA-CATH:ATRA1-ATRA1 peptides with S. aureus in a 1 hr attachment assay at peptide concentrations of 1 ug/ml, examining for the initial adherence to the wells of the 96 well tissue-culture treated plate.
Figure 3 Attachment assay of S. aureus in the presence of peptide. We tested scrambled LL-37 (negative control), LL-37, D-LL-37, NA-CATH, and NA-CATH:ATRA1-ATRA1 against S. aureus (1 h, 37°C) at 1 μg/ml, only allowing for the initial adherence to the wells.
Biofilm attachment assays were performed in a 96-well microtiter plate (BD Falcon 353072), as previously described. Overnight cultures of S. aureus were grown in TSB to an optical density (600nm) of ~1.0. 200 μl culture was added to the wells, followed by no peptide, scrambled LL-37 , LL-37, D-LL-37, NA-CATH, or NA-CATH:ATRA1-ATRA1 at 1 μg/ml. […] The wells were washed and OD600 measurements were taken, as in the biofilm production experiments, and the average absorbance for each treatment was determined (n = 16).

S. aureus = test: Bacterial growth / MIC in TSB; assay type: cell-based, Staphylococcus aureus; settings: TSB (relatively high salt), peptide concentrations up to the EC50 found in 10 mM sodium phosphate
Protocol: as §1, §2

S. aureus (ATCC 25923) = tested on: S. aureus (ATCC 25923)
Protocol: S. aureus (ATCC 25923, American Type Culture Collection, Manassas, VA) was grown in Nutrient Broth (Difco Laboratories, Detroit, Mich.) at pH 7, 37°C, 24 h with shaking at 200 rpm. The overnight culture was frozen with 20% glycerol and stored at -80°C. The frozen stock was enumerated (CFU/ml) by dilution plating and growth on Nutrient Agar plates.
For anti-microbial assays, frozen enumerated aliquots were thawed and gently mixed immediately before use. In a 96-well plate (BD Falcon 353072), 1 × 10^5 CFU per well bacteria were incubated with different peptide concentrations (in serial dilutions of 1:10 across the plate) in a solution of buffer containing sterile 10 mM sodium phosphate (pH 7.4) and incubated (3 h, 37°C). Negative control wells contained bacteria with no peptide. Serial dilutions were then carried out in sterile 1x PBS (Fisher Scientific) (pH 7) and plated in triplicate on Nutrient Agar plates, incubated (37°C, 24 h) and counted. […] The EC50 was calculated as previously described.
Each experiment was repeated at least twice, and a representative experiment is shown, for clarity. Errors were reported based on the standard deviation from the mean of the log10 EC50 values. 95% confidence intervals were used to determine whether points were statistically different at p = 0.05.

Molecule	inhibition of biofilm formation [1]	hemolytic activity (erythrocytes)	attachment of S. aureus to the wells [2]	bacterial growth (OD600 at 24 hours) (S. aureus)	EC50 (S. aureus (ATCC 25923); EC50 in μg/ml converted with the molecular weight of the TFA salt of the peptide) [nM]	EC50 (S. aureus (ATCC 25923); S. aureus ATCC 25923, 1 × 10^5 CFU per well, 3 h, 37°C, 10 mM sodium phosphate (pH 7.4), % survival by CFU counts, plated in triplicate, representative experiment) [µg/mL]	fold change of activity against S. aureus, ATRA-1A compared to ATRA-1 (S. aureus (ATCC 25923); p > 0.05) [fold]
CC[C@H](C)[C@H](NC(=O)[C@H](CCCCN)NC(=O)[C@H](CCC(=O)O)NC(=O)[C@H](CCCCN)NC(=O)[C@H](CO)NC(=O)[C@H](CCCCN)NC(=O)[C@H](CCCNC(=N)N)NC(=O)[C@H](Cc1ccccc1)NC(=O)[C@H](Cc1ccccc1)NC(=O)[C@H](CC(=O)O)NC(=O)CNC(=O)[C@H](CC(C)C)NC(=O)[C@@H](N)CC(C)C)C(=O)NCC(=O)N[C@@H](CCCCN)C(=O)N[C@@H](CCC(=O)O)C(=O)N[C@@H](Cc1ccccc1)C(=O)N[C@@H](CCCCN)C(=O)N[C@@H](CCCNC(=N)N)C(=O)N[C@H](C(=O)N[C@H](C(=O)N[C@@H](CCC(N)=O)C(=O)N[C@@H](CCCNC(=N)N)C(=O)N[C@H](C(=O)N[C@@H](CCCCN)C(=O)N[C@@H](CC(=O)O)C(=O)N[C@@H](Cc1ccccc1)C(=O)N[C@@H](CC(C)C)C(=O)N[C@@H](CCCNC(=N)N)C(=O)N[C@@H](CC(N)=O)C(=O)N[C@@H](CC(C)C)C(=O)N[C@H](C(=O)N1CCC[C@H]1C(=O)N[C@@H](CCCNC(=N)N)C(=O)N[C@H](C(=O)N[C@@H](CCC(=O)O)C(=O)N[C@@H](CO)C(=O)O)[C@@H](C)O)C(C)C)[C@@H](C)CC)C(C)C)[C@@H](C)CC [LL-37]	~ 40%	similarly low levels	significantly decreased	not decreased	–	–	–
KRAKKFFKKLK-NH2 [ATRA-1A]	–	–	–	–	310	0.73	1.4
